Results published in PubChem BioAssay (NCI).
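Abbreviation: GI50, concentration required for 50% inhibition of growth. The concentration for full growth arrest is given as TGI.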

Columns and labels:
Test in all cases: DTP human tumour cell line panel, 384-well format
OVCAR-5 ovarian = tested on: OVCAR-5 ovarian
MCF7 breast = tested on: MCF7 breast
ACHN renal = tested on: ACHN renal
TK-10 renal = tested on: TK-10 renal
NCI-H460 NSCLC = tested on: NCI-H460 NSCLC
HT29 colon = tested on: HT29 colon
HS 578T breast = tested on: HS 578T breast
LOX IMVI melanoma = tested on: LOX IMVI melanoma
SNB-19 CNS = tested on: SNB-19 CNS
NCI-H322M lung = tested on: NCI-H322M lung
KM12 colon = tested on: KM12 colon
SR leukemia = tested on: SR leukemia
OVCAR-8 ovarian = tested on: OVCAR-8 ovarian
U251 glioblastoma = tested on: U251 glioblastoma
MDA-MB-231 breast = tested on: MDA-MB-231 breast
UO-31 renal = tested on: UO-31 renal
PC-3 prostate = tested on: PC-3 prostate
M14 melanoma = tested on: M14 melanoma
OVCAR-4 ovarian = tested on: OVCAR-4 ovarian
MOLT-4 leukemia = tested on: MOLT-4 leukemia
RPMI-8226 leukemia = tested on: RPMI-8226 leukemia
SF-268 CNS = tested on: SF-268 CNS
SW-620 colon = tested on: SW-620 colon
CAKI-1 renal = tested on: CAKI-1 renal
HCC-2998 colon = tested on: HCC-2998 colon
OVCAR-3 ovarian = tested on: OVCAR-3 ovarian
HL-60(TB) leukemia = tested on: HL-60(TB) leukemia
MDA-MB-468 breast = tested on: MDA-MB-468 breast
NCI-H226 lung = tested on: NCI-H226 lung
HOP-62 NSCLC = tested on: HOP-62 NSCLC
SF-295 CNS = tested on: SF-295 CNS
MALME-3M melanoma = tested on: MALME-3M melanoma
786-0 renal = tested on: 786-0 renal
DU-145 prostate = tested on: DU-145 prostate
HCT-15 colon = tested on: HCT-15 colon
CCRF-CEM leukemia = tested on: CCRF-CEM leukemia
A498 renal = tested on: A498 renal
SF-539 CNS = tested on: SF-539 CNS
SN12C renal = tested on: SN12C renal
HOP-92 NSCLC = tested on: HOP-92 NSCLC
SNB-75 CNS = tested on: SNB-75 CNS
BT-549 breast = tested on: BT-549 breast
IGROV1 ovarian = tested on: IGROV1 ovarian
SK-OV-3 ovarian = tested on: SK-OV-3 ovarian
MDA-MB-435 melanoma = tested on: MDA-MB-435 melanoma
NCI-H522 lung = tested on: NCI-H522 lung
NCI/ADR-RES ovarian = tested on: NCI/ADR-RES ovarian
SK-MEL-5 melanoma = tested on: SK-MEL-5 melanoma
NCI-H23 lung = tested on: NCI-H23 lung
UACC-62 melanoma = tested on: UACC-62 melanoma
COLO 205 colon = tested on: COLO 205 colon
UACC-257 melanoma = tested on: UACC-257 melanoma
EKVX NSCLC = tested on: EKVX NSCLC
T-47D breast = tested on: T-47D breast
K-562 leukemia = tested on: K-562 leukemia
RXF 393 renal = tested on: RXF 393 renal
SK-MEL-28 melanoma = tested on: SK-MEL-28 melanoma
A549 NSCLC = tested on: A549 NSCLC

Question: What does the source list for `O=C(NOCC1CC1)c1ccc(F)c(F)c1Nc1ccc(I)cc1Cl`?
Answer: GI50 (OVCAR-5 ovarian): 304 nM; TGI (OVCAR-5 ovarian): 2650 nM; GI50 (MCF7 breast): 2900 nM; TGI (MCF7 breast): 10.7 µM; GI50 (ACHN renal): 1660 nM; TGI (ACHN renal): 15.4 µM; GI50 (TK-10 renal): 1910 nM; TGI (TK-10 renal): 5.84 µM; GI50 (NCI-H460 NSCLC): 1380 nM; TGI (NCI-H460 NSCLC): 11.4 µM; GI50 (HT29 colon): 279 nM; TGI (HT29 colon): 10.3 µM; GI50 (HS 578T breast): 1840 nM; TGI (HS 578T breast): 6.16 µM; GI50 (LOX IMVI melanoma): 337 nM; TGI (LOX IMVI melanoma): 1690 nM; GI50 (SNB-19 CNS): 1340 nM; TGI (SNB-19 CNS): 5.8 µM; GI50 (NCI-H322M lung): 1230 nM; TGI (NCI-H322M lung): 6.8 µM; GI50 (KM12 colon): 414 nM; TGI (KM12 colon): 3.93 µM; GI50 (SR leukemia): 1650 nM; TGI (SR leukemia): 3.26 µM; GI50 (OVCAR-8 ovarian): 1920 nM; TGI (OVCAR-8 ovarian): 4.82 µM; GI50 (U251 glioblastoma): 2110 nM; TGI (U251 glioblastoma): 8.04 µM; GI50 (MDA-MB-231 breast): 896 nM; TGI (MDA-MB-231 breast): 2960 nM; GI50 (UO-31 renal): 2340 nM; TGI (UO-31 renal): > 100 µM; GI50 (PC-3 prostate): 3.5 µM; TGI (PC-3 prostate): 11.8 µM; GI50 (M14 melanoma): 34.9 nM; TGI (M14 melanoma): 176 nM; GI50 (OVCAR-4 ovarian): 1490 nM; TGI (OVCAR-4 ovarian): 5.03 µM; GI50 (MOLT-4 leukemia): 1650 nM; TGI (MOLT-4 leukemia): 3.02 µM; GI50 (RPMI-8226 leukemia): 277 nM; TGI (RPMI-8226 leukemia): 1780 nM; GI50 (SF-268 CNS): 3.18 µM; TGI (SF-268 CNS): 14.7 µM; GI50 (SW-620 colon): 105 nM; TGI (SW-620 colon): 1870 nM; GI50 (CAKI-1 renal): 1030 nM; TGI (CAKI-1 renal): 3.07 µM; GI50 (HCC-2998 colon): 84.7 nM; TGI (HCC-2998 colon): 540 nM; GI50 (OVCAR-3 ovarian): 1640 nM; TGI (OVCAR-3 ovarian): 3.32 µM; GI50 (HL-60(TB) leukemia): 37.5 nM; TGI (HL-60(TB) leukemia): 808 nM; GI50 (MDA-MB-468 breast): 1850 nM; TGI (MDA-MB-468 breast): 3.55 µM; GI50 (NCI-H226 lung): 1180 nM; TGI (NCI-H226 lung): 4.32 µM; GI50 (HOP-62 NSCLC): 868 nM; TGI (HOP-62 NSCLC): 6.43 µM; GI50 (SF-295 CNS): 2250 nM; TGI (SF-295 CNS): 6.09 µM; GI50 (MALME-3M melanoma): 17 nM; TGI (MALME-3M melanoma): 44.8 nM; GI50 ([…]-0 renal): 1860 nM; TGI (786-0 renal): 9.93 µM; GI50 (DU-145 prostate): 3.49 µM; TGI (DU-145 prostate): 15.3 µM; GI50 (HCT-15 colon): 2290 nM; TGI (HCT-15 colon): 11.5 µM; GI50 (CCRF-CEM leukemia): 1800 nM; TGI (CCRF-CEM leukemia): 3.37 µM; GI50 (A498 renal): 1690 nM; TGI (A498 renal): 12.2 µM; GI50 (SF-539 CNS): 1620 nM; TGI (SF-539 CNS): 3.61 µM; GI50 (SN12C renal): 1040 nM; TGI (SN12C renal): 4.43 µM; GI50 (HOP-92 NSCLC): 1060 nM; TGI (HOP-92 NSCLC): 2410 nM; GI50 (SNB-75 CNS): 1880 nM; TGI (SNB-75 CNS): 9.45 µM; GI50 (BT-549 breast): 2730 nM; TGI (BT-549 breast): 14.8 µM; GI50 (IGROV1 ovarian): 1080 nM; TGI (IGROV1 ovarian): 2810 nM; GI50 (SK-OV-3 ovarian): 3.16 µM; TGI (SK-OV-3 ovarian): 13.3 µM; GI50 (MDA-MB-435 melanoma): 110 nM; TGI (MDA-MB-435 melanoma): 6.03 µM; GI50 (NCI-H522 lung): 1820 nM; TGI (NCI-H522 lung): 4.09 µM; GI50 (NCI/ADR-RES ovarian): 1740 nM; TGI (NCI/ADR-RES ovarian): 3.69 µM; GI50 (SK-MEL-5 melanoma): 104 nM; TGI (SK-MEL-5 melanoma): 1580 nM; GI50 (NCI-H23 lung): 246 nM; TGI (NCI-H23 lung): 1910 nM; GI50 (UACC-62 melanoma): 40 nM; TGI (UACC-62 melanoma): 259 nM; GI50 (COLO 205 colon): 56.6 nM; TGI (COLO 205 colon): 1010 nM; GI50 (UACC-257 melanoma): 46 nM; TGI (UACC-257 melanoma): 234 nM; GI50 (EKVX NSCLC): 1720 nM; TGI (EKVX NSCLC): 4.29 µM; GI50 (T-47D breast): 2350 nM; TGI (T-47D breast): 7.06 µM; GI50 (K-562 leukemia): 1750 nM; TGI (K-562 leukemia): 10.7 µM; GI50 (RXF 393 renal): 2110 nM; TGI (RXF 393 renal): 11.6 µM; GI50 (SK-MEL-28 melanoma): 35.2 nM; TGI (SK-MEL-28 melanoma): 208 nM; GI50 (A549 NSCLC): 1030 nM; TGI (A549 NSCLC): 3.84 µM
